Measurements as given in patent US10919877B2, “Multifunctional inhibitors of MEK/PI3K and mTOR/MEK/PI3K biological pathways and therapeutic methods using the same” (THE REGENTS OF THE UNIVERSITY OF MICHIGAN, priority 2016, dated 2021).
Entries after “also recorded” stand apart in the source; their conditions may differ. Read-outs that look alike come from different tables or passages of the source.

Key:
MEK1 = target: T1, MEK1 (Homo sapiens, UniProt Q02750); assay: In vitro MEK1 inhibition assay (Kinase-Glo luminescent kinase assay); assay type: biochemical; conditions: average of three experiments each conducted in duplicate
T1 construct: purchased Sigma-Aldrich
Procedure: In Vitro MEK1 Inhibition Assays.
In vitro MEK1 inhibition activity of inhibitor analogs were determined using Kinase-Glo luminescent kinase assay kits from Promega (WI, USA) per manufacturer's instructions. […] Briefly, series of compound dilutions were added in 96-well plates, followed by MEK1, Erk2, and ATP solutions. Kinase reactions were run at 30° C. for 30 minutes. Equal volumes of Kinase-Glo solution were then added, and reactions were incubated at room temperature for a further 30 minutes. Bioluminescence signals were acquired with an Envision multilabel reader from Perkin Elmer. Assays were conducted in triplicate with various inhibitor concentrations each run in duplicate. IC50 data were calculated using GraphPad Prism software (version 5.0, La Jolla, Calif.).

PI3K = PI3K (Homo sapiens, UniProt P42336); assay: In vitro PI3K inhibition assay (Adapta TR-FRET); assay type: biochemical; conditions: average of three experiments each conducted in duplicate
Procedure: In Vitro PI3K Inhibition Assays.
Quantitation of PI3K lipid kinase activity was carried out by Life Technologies (Madison, Wis.) with purified enzyme using the fluorescence-based Adapta TR-FRET assay protocol. Assays were conducted in triplicate with various inhibitor concentrations (0.1 nM to 10 μM).

PI3Kα = target: T2, PI3Kα (Homo sapiens, UniProt P42336); assay: PI3K subtype enzyme inhibition; assay type: biochemical
T2 construct: purchased Life Technologies (assay run by the vendor)

PI3Kβ = target: T3, PI3Kβ (Homo sapiens, UniProt P42338); assay: PI3K subtype enzyme inhibition; assay type: biochemical
T3 construct: purchased Life Technologies (assay run by the vendor)

PI3Kγ [1] = target: T4, PI3Kγ (Homo sapiens, UniProt P48736); assay: PI3K subtype enzyme inhibition; assay type: biochemical
T4 construct: purchased Life Technologies (assay run by the vendor)

[2] = system: pErk1/2 in A549 and D54 cells; assay: Cellular MEK1 inhibition, Western blot of pErk1/2 in cultured tumor cells; assay type: cell-based, human; conditions: A549 and D54 cell lines, 1 hour
Procedure: Western Blot Analysis. […] Cells were washed with phosphatebuffered saline (PBS) and lysed with NP-40 lysis buffer (1% NP40, 150 mM NaCl, and 25 mM Tris, pH 8.0) supplemented with protease inhibitors (Complete protease inhibitor cocktail, Roche, Basel, Switzerland) and phosphatase inhibitors (PhosSTOP, Roche, Basel, Switzerland). […] Proteins were transferred to 0.2 μm nitrocellulose membranes (Invitrogen, CA). Membranes were incubated overnight at 4° C. with primary antibodies after blocking, followed by incubation with appropriate horseradish peroxidase (HRP) conjugated secondary antibody at room temperature for 1 hour. ECL-Plus was used to detect the activity of peroxidase according to the manufacturer's protocol (Amersham Pharmacia, Uppsala, Sweden).

[3] = system: pAkt in A549 and D54 cells; assay: Cellular PI3K inhibition, Western blot of pAkt in cultured tumor cells; assay type: cell-based, human; conditions: 1 hour
Procedure: The in vitro MEK1 and PI3K inhibitory activity of these series of compounds was also assessed in cultured tumor cells (D54, A549). Cellular efficacy of MEK1 and PI3K inhibition by inhibitor compounds was measured by changes in phosphorylation of pErk1/2 and pAkt, respectively. […] Cells were incubated in the presence of indicated compounds for 1 hour and lysates probed with specific antibodies against pAKT and pERK 1/2 and compared with vehicle control (DMSO). A549 (FIG. 2A) and D54 (FIG. 2B) cells were treated with inhibitors at the indicated concentrations for 1 hour and subjected to Western blot analysis.
Western Blot Analysis. Cells were seeded in six-well dishes 24 hours prior to treatment and incubated with the respective inhibitor compound solutions for 1 h. Cells were washed with phosphatebuffered saline (PBS) and lysed with NP-40 lysis buffer (1% NP40, 150 mM NaCl, and 25 mM Tris, pH 8.0) supplemented with protease inhibitors (Complete protease inhibitor cocktail, Roche, Basel, Switzerland) and phosphatase inhibitors (PhosSTOP, Roche, Basel, Switzerland). Concentration of protein was determined using Lowry assays (Bio-Rad, Hercules, Calif.), and equal amounts of whole cell protein lysate were loaded in each lane and resolved using 4-12% gradient Bis-Tris gel (Invitrogen, CA). Proteins were transferred to 0.2 μm nitrocellulose membranes (Invitrogen, CA). Membranes were incubated overnight at 4° C. with primary antibodies after blocking, followed by incubation with appropriate horseradish peroxidase (HRP) conjugated secondary antibody at room temperature for 1 hour. ECL-Plus was used to detect the activity of peroxidase according to the manufacturer's protocol (Amersham Pharmacia, Uppsala, Sweden). Antibodies raised against phospho-p44/42 MAPK (Erk1/2) (Thr202/Tyr204), pAKT(5473), phospho-p70 S6K* and total ERK, AKT antibodies were purchased from Cell Signaling Technology (Beverly, Mass., USA), and anti-β actin (conjugated with HRP) was purchased from Abcam (Cambridge, Mass., USA). Secondary HRP antibodies were purchased from Jackson ImmunoResearch (St. Louis, Mo., USA).

[4] = system: A375 (melanoma), D54 (glioma), CT26 colorectal cancer, A2058 (melanoma) cell lines; assay: Concurrent inhibition in tumor cell lines (multifunctional inhibitors); assay type: cell-based
Description: The synthesis of another series of single entity, multifunctional inhibitors achieved by covalent linking of structural analogs of a PI3K inhibitor mTOR inhibitor, and an MEK inhibitor is also disclosed.

A549 lung tumor cells = assay: Cell viability, AlamarBlue assay; assay type: cell-based, human; conditions: dose dependence
D54 glioma cells = assay: Cell viability, AlamarBlue assay; assay type: cell-based, human; conditions: dose dependence
ERK1/2 phosphorylation = assay: In vivo MEK1 inhibition in flank D54 and A549 tumor bearing mice (Western blot)
Procedure: Four athymic nude Foxn1nu mice were used to evaluate oncogenic target modulation activity in vivo.
In Vivo Evaluation of Inhibitor Efficacy.
Each injectate contained a total volume of 200 μL of cell suspension in 50% RPMI medium mixed with 50% BD Matrigel basement membrane matrix (Becton, Dickinson and Company, East Rutherford, N.J.). […] Tumor tissues were collected from both vehicle and drug-treated groups and subjected to Western blot analysis as previously described.

Akt phosphorylation = assay: In vivo PI3K inhibition in flank D54 and A549 tumor bearing mice (Western blot)
MEK1 and PI3K activities [5] = assay: In vivo MEK1 and PI3K inhibition in intracerebral D54 glioma bearing mice (Western blot); conditions: intracerebral D54, 400 mg/kg oral gavage, 2 hours
Procedure: Mice bearing i.c. D54 tumors were treated with either vehicle or 400 mg/kg of ST-162 or ST-168 by oral gavage at 2 hours prior to sacrifice.

MEK1 and PI3K activities [6] = assay: In vivo MEK1 and PI3K inhibition in subcutaneous melanoma tumors A357 and A2058 (Western blot); parameters: species or system mice; conditions: s.q. melanoma A357 and A2058, 400 mg/kg oral gavage, 2 hours
Procedure: Mice bearing s.q. melanoma tumors were treated with either vehicle or 400 mg/kg of ST-162 or ST-168 by oral gavage at 2 hours prior to sacrifice.

MEK1 and PI3K activities [7] = assay: In vivo MEK1 and PI3K inhibition in subcutaneous colon tumor CT26 (Western blot); parameters: species or system mice; conditions: subcutaneous CT26, 400 mg/kg oral gavage, 2 hours
Procedure: Mice bearing subcutaneous colon tumors were treated with either vehicle or 400 mg/kg of ST-162 or ST-168 by oral gavage at 2 hours prior to sacrifice. The known MEK inhibitor 901 and PI3K inhibitors were also evaluated in this study.

[8] = system: intracerebral D54 glioma tumors; assay: Survival of mice bearing intracerebral D54 tumors; assay type: in vivo; conditions: intracerebral D54, 400 mg/kg oral gavage, vs vehicle control; listed as ST-162
Procedure: (§1) In preliminary studies, several mouse models were tested for therapeutic efficacy using oral administration of ST-162. Athymic nude Foxn1 nu mice were used to evaluate oncogenic target modulation activity in vivo. Mice bearing intracerebral D54 tumors, subcutaneous colon tumors (CT26) and subcutaneous melanoma (A375 and A2058) tumors were treated with either vehicle control or 400 mg/kg of compound ST-162 by oral gavage for 14-30+ days.

[9] = system: melanoma tumors A2058 and A357; assay: Tumor growth of subcutaneous melanoma tumors; assay type: in vivo, mice; conditions: 400 mg/kg oral gavage, 14 days, vs vehicle, listed as ST-162, 400 mg/kg
Procedure: as §1
In FIG. 9, compound ST-162 was administered for 14 days beginning when subcutaneous melanoma tumors A2058 and A357 were measurable by caliper and MRI and tumor volumes were measured over time and compared to vehicle controls.

colon tumors CT-26 = assay: Tumor growth of subcutaneous colon tumors; assay type: in vivo, mice; conditions: for tumor growth: subcutaneous CT26, 400 mg/kg oral gavage, 14 days, vs vehicle
Procedure: as §1
In FIG. 10, compound ST-162 was administered for 14 days beginning when subcutaneous colon tumors CT-26 were measurable by caliper and MRI and tumor volumes were measured over time and compared to vehicle controls.
In FIG. 11, ST-162 was administered for 14 days beginning when subcutaneous colon tumors CT-26 were measurable by caliper and MRI and tumor volumes were measured over time and compared to vehicle controls. At day 14, two tumors were removed and compared for size and weight.

PI3Kδ = target: T5, PI3Kδ (Homo sapiens, UniProt O00329); assay: PI3K subtype enzyme inhibition; assay type: biochemical
T5 construct: purchased Life Technologies (assay run by the vendor)

mTOR/MEK1/PI3K = assay: In vivo inhibition in A375 flank tumor (Western blot); parameters: species or system mouse; conditions: oral, 2 hour postadministration
Description: (§2) The synthesis of another series of single entity, multifunctional inhibitors achieved by covalent linking of structural analogs of a PI3K inhibitor mTOR inhibitor, and an MEK inhibitor is also disclosed. […] […].

A375 melanoma tumor = assay: In vivo efficacy in A375 melanoma tumor bearing mice
Description: as §2

PI3Kγ [10] = target: T4, PI3Kγ; conditions: second value in parentheses, unexplained; cited from earlier work
[11] = mean ± SEM, read-out: PI3K Subtype Inhibition Activity PI3Kα
[12] = mean ± SEM, read-out: PI3K Subtype Inhibition Activity PI3Kβ
[13] = read-out: PI3K Subtype Enzyme Inhibition Data IC50 PI3Kβ
[14] = mean ± SEM, read-out: PI3K Subtype Inhibition Activity PI3Kγ
[15] = read-out: PI3K Subtype Enzyme Inhibition Data IC50 PI3Kγ
[16] = D54 and A549 tumors, compound 14: 375 mg/kg oral gavage, 2 h, 375 mg/kg
[17] = oral administration, 2 h postadministration, Western blot

T2 sequence (P42336 whole entry): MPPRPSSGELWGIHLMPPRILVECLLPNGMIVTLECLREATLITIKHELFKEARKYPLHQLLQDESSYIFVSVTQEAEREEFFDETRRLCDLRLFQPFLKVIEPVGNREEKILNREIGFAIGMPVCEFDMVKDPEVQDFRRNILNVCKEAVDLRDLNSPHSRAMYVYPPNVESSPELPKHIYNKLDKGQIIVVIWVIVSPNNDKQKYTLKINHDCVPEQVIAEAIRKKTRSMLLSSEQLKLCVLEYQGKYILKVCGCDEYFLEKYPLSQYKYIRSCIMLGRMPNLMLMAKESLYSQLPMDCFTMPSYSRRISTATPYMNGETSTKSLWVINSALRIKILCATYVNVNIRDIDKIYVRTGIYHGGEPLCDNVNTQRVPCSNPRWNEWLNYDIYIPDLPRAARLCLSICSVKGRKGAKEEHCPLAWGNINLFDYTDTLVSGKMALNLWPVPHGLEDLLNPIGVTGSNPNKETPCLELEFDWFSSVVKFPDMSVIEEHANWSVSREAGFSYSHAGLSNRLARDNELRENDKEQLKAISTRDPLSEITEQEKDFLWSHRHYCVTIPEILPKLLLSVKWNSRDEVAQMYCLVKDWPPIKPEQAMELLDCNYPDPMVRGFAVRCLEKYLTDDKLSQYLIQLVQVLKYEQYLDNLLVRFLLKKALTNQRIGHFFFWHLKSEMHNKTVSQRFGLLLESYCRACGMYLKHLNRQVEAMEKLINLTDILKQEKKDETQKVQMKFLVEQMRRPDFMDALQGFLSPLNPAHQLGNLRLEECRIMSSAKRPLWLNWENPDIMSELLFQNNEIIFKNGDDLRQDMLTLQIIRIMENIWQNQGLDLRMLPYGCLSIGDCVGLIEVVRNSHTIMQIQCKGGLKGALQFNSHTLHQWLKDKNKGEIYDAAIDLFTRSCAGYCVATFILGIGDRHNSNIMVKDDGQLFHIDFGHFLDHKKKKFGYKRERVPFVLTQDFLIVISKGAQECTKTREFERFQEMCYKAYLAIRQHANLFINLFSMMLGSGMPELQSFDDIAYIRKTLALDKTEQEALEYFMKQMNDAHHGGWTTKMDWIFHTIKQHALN
T2 sequence (P27986 whole entry partner): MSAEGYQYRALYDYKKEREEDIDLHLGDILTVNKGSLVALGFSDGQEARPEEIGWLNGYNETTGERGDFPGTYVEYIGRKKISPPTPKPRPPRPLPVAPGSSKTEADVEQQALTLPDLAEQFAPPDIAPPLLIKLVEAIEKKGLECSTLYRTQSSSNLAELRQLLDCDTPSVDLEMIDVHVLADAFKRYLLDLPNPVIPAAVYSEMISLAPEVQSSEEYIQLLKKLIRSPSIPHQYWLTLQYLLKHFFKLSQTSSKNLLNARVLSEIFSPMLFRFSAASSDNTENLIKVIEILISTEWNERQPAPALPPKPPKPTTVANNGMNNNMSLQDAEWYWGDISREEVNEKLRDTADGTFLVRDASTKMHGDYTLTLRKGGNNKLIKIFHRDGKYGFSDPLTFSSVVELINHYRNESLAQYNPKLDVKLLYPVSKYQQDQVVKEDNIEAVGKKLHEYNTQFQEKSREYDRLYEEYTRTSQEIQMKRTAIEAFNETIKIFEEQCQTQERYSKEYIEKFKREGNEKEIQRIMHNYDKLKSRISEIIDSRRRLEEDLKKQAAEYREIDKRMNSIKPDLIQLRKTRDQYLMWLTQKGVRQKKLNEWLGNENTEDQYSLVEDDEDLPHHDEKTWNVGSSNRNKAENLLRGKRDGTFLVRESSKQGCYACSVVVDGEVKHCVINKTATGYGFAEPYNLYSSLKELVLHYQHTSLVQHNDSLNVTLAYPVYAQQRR
T4 sequence (P48736 whole entry): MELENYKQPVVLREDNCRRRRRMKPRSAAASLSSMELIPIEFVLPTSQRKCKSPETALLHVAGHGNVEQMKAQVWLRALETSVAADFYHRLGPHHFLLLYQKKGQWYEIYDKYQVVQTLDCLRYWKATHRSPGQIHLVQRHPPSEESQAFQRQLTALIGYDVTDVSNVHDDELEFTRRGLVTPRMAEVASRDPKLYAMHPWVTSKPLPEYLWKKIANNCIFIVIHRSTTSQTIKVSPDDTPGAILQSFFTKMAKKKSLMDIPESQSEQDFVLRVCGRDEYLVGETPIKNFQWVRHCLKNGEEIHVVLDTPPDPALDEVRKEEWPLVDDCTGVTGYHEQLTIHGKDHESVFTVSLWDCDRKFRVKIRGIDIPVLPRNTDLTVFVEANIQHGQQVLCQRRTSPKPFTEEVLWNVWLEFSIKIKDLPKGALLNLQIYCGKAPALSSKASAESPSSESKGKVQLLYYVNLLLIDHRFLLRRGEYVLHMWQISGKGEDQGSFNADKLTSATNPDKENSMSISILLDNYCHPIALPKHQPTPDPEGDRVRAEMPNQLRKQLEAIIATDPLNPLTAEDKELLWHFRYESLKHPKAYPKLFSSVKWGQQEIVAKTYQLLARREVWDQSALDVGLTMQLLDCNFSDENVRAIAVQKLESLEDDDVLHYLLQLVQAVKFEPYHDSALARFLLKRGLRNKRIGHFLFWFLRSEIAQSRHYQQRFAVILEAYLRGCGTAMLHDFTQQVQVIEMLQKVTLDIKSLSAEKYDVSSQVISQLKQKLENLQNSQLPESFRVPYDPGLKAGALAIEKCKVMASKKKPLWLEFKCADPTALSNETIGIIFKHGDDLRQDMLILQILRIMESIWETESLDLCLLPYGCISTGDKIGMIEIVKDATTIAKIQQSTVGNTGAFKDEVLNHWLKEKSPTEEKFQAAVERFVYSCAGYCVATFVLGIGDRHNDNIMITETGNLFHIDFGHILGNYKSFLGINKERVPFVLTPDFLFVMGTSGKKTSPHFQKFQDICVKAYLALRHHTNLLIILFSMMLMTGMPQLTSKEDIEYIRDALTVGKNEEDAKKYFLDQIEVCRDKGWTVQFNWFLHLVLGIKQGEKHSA
T3 sequence (P42338 whole entry): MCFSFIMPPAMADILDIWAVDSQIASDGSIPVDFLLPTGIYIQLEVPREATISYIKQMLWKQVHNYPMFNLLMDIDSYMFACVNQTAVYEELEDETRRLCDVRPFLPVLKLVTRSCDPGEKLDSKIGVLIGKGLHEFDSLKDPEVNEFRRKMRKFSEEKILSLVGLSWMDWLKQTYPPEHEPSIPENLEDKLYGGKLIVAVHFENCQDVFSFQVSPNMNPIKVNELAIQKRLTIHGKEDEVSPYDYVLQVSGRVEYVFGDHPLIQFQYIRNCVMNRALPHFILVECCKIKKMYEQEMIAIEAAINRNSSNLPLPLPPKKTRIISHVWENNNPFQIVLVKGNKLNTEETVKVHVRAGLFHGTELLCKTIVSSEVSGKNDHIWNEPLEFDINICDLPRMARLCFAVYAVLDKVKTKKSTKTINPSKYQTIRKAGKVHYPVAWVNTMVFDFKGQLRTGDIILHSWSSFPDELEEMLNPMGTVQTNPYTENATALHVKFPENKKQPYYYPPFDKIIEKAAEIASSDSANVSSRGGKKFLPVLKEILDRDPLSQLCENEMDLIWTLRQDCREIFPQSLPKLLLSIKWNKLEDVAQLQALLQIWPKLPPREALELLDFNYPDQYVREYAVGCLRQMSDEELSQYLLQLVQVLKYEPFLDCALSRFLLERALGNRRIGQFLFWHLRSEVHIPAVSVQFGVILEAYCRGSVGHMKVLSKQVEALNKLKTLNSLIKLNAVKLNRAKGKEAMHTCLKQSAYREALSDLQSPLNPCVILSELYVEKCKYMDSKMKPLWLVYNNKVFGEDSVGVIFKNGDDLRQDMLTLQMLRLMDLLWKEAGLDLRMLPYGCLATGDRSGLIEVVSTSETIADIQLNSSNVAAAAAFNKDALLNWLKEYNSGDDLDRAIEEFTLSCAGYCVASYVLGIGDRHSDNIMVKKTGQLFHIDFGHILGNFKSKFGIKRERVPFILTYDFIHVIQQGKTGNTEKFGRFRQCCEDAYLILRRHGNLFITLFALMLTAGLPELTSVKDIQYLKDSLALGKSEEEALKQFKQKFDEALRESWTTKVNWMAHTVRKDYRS
T3 sequence (P27986 whole entry partner): as the sequence (P27986 whole entry partner) above
T5 sequence (O00329 whole entry): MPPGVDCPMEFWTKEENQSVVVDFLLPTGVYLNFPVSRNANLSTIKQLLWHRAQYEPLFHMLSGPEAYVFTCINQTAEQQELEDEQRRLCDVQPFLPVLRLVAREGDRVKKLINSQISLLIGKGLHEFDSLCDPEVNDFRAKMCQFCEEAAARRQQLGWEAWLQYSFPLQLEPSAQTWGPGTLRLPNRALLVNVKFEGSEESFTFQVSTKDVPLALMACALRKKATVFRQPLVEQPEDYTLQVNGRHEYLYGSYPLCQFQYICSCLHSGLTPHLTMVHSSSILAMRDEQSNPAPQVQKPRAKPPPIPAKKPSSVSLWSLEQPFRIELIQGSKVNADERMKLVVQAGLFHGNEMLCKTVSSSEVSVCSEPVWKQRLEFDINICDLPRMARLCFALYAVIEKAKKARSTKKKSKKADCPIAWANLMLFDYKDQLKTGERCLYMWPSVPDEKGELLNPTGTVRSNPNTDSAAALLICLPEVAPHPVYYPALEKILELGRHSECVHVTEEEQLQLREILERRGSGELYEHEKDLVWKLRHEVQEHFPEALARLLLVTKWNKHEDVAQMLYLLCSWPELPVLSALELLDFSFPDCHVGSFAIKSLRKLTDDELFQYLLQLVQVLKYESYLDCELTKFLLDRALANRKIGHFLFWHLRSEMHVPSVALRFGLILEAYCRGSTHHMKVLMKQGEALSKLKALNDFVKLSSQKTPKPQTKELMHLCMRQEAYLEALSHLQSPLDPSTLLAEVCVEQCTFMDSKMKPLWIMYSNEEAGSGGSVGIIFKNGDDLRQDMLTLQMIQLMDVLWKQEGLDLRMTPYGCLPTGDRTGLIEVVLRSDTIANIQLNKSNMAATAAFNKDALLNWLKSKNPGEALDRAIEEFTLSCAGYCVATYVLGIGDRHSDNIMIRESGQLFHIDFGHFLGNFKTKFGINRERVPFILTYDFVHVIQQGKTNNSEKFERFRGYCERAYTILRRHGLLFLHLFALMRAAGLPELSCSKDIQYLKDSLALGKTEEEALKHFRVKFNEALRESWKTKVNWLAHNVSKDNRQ
T5 sequence (P27986 whole entry partner): as the sequence (P27986 whole entry partner) above

Work on `O=C(NOCCOCCOCCOCCN1CCN(c2nc(N3CCOCC3)nc(-n3c(C(F)F)nc4ccccc43)n2)CC1)c1ccc(F)c(F)c1Nc1ccc(I)cc1F` [Compound 14] yielded an IC50 (MEK1) of 0.15 nM, an IC50 (PI3K) of 191 to 341 nM and an IC50 (PI3Kα; [11]) of 467 ± 9 nM. The IC50 (PI3Kβ; [12]) was 4070 ± 290 nM, the IC50 (PI3Kβ; [13]) was 4070 ± 290 nM and the IC50 (PI3Kγ [1]; [14]) was 5800 ± 511 nM. For the same compound, the IC50 (PI3Kγ [1]; [15]) was 5800 ± 511 nM, the “MEK inhibition in cells” value [2] was “inhibition was demonstrated; also recorded: most pronounced” and the “PI3K inhibition in cells” value ([3]; A549 and D54 cell lines, Western blot) was “inhibition was demonstrated; also recorded: most pronounced”. For the same compound, the “PI3K activity indicated by level of pAKT” value ([3]; cultured A549 cells, Western blot vs DMSO) was “high potency in inhibiting PI3K activity”, the “Concurrent inhibition in tumor cell lines” value [4] was “Concurrent inhibition was demonstrated” and the cell viability (A549 lung tumor cells) was “as effective as the combination of ZSTK474 and PD0325901”. For the same compound, the cell viability (D54 glioma cells) was “as effective as the combination of ZSTK474 and PD0325901”, the “phosphorylation of ERK1/2 (MEK1 activity) in excised tumor tissue” value (ERK1/2 phosphorylation; [16]) was “inhibited phosphorylation; also recorded: significant inhibition” and the “inhibition of tumor ERK1/2 phosphorylation” value (ERK1/2 phosphorylation; [17]) was 95%. For the same compound, the “phosphorylation of Akt (PI3K activity) in excised tumor tissue” value (Akt phosphorylation; [16]) was “inhibited phosphorylation; also recorded: significant inhibition”, the “inhibition of tumor Akt phosphorylation” value (Akt phosphorylation; [17]) was 67% and the “MEK1 and PI3K activities in tumor relative to vehicle control” value (MEK1 and PI3K activities [5]) was “successfully modulated both MEK1 and PI3K activities”. For the same compound, the “MEK1 and PI3K activities in tumor relative to vehicle control” value (MEK1 and PI3K activities [6]) was “successfully modulated both MEK1 and PI3K activities”, the “MEK1 and PI3K activities in tumor relative to vehicle control” value (MEK1 and PI3K activities [7]) was “successfully modulated MEK1 and PI3K activities” and the overall survival [8] was “improved animal survival; also recorded: significant improvement (P=0.0054)”. The tumor growth [9] was “significant tumor growth delays; also recorded: significant reduction of tumor growth”, the “size of excised tumors” value (colon tumors CT-26; CT-26, day 14, vs vehicle control tumors) was “smaller in volume” and the tumor growth (colon tumors CT-26; listed as MV4-162) was “significant reduction of tumor growth”. For the same compound, the tumor growth (colon tumors CT-26; listed as ST-162) was “significant tumor growth delays”.
`O=C(NOCCOCCOCCOCCC(=O)N1CCN(c2nc(N3CCOCC3)nc(-n3c(C(F)F)nc4ccccc43)n2)CC1)c1ccc(F)c(F)c1Nc1ccc(I)cc1F` [ST-168] showed an IC50 (PI3Kα; [11]) of 69.2 ± 2.2 nM, an IC50 (PI3Kα; read-out: PI3K Subtype Enzyme Inhibition Data IC50 PI3Kα) of 69.2 ± 2.2 nM and an IC50 (PI3Kβ; [12]) of 1480 ± 377 nM. It also gave an IC50 (PI3Kβ; [13]) of 1480 ± 377 nM, an IC50 (PI3Kγ [1]; [14]) of 2290 ± 241 nM and an IC50 (PI3Kγ [1]; [15]) of 2290 ± 241 nM. For the same compound, the IC50 (PI3Kδ; mean ± SEM, read-out: PI3K Subtype Inhibition Activity PI3Kδ) was 41.7 ± 2.1 nM, the IC50 (PI3Kδ; read-out: PI3K Subtype Enzyme Inhibition Data IC50 PI3Kδ) was 41.7 ± 2.1 nM and the “Concurrent inhibition in tumor cell lines” value [4] was “Concurrent inhibition was demonstrated”. For the same compound, the “MEK1 and PI3K activities in tumor relative to vehicle control” value (MEK1 and PI3K activities [5]) was “successfully modulated both MEK1 and PI3K activities”, the “MEK1 and PI3K activities in tumor relative to vehicle control” value (MEK1 and PI3K activities [6]) was “successfully modulated both MEK1 and PI3K activities” and the “MEK1 and PI3K activities in tumor relative to vehicle control” value (MEK1 and PI3K activities [7]) was “successfully modulated MEK1 and PI3K activities”. The “inhibition of mTOR/MEK1/PI3K in tumor tissue” value (mTOR/MEK1/PI3K) was “combined inhibition of mTOR/MEK1/PI3K was achieved”, the “reduction in tumor size over vehicle control” value (A375 melanoma tumor; A375, 400 mg/kg daily oral, 35 days post-treatment initiation) was greater than 6 fold and the lifespan (A375 melanoma tumor; A375 tumor bearing mice, 400 mg/kg daily oral) was “significantly increased lifespan”. The “side effects (such as loss in body weight)” value (A375 melanoma tumor; long term dosage, 40 daily oral doses, 400 mg/kg) was “no detectable side effects”.
In the case of `COc1ncc(-c2ccc3nccc(-c4ccnnc4)c3c2)cc1NS(=O)(=O)c1ccc(F)cc1F` [GSK 458, reference compound], the IC50 (PI3Kγ [1]; ST-182 and intermediates, read-out: PI3Kγ IC50) is given as 0.83 ± 0.1 nM and the IC50 (PI3Kγ [10]) is given as 0.06 nM.
